Assay results: patent US20260274829A1, “NEW E3 UBIQUITIN LIGASE LIGAND, PROTEIN DEGRADATION AGENT AND USE THEREOF” (GLUETACS THERAPEUTICS (SHANGHAI) CO., LTD., priority 2023, published 2026)

What was measured:
Type in all cases: cell-based
IKZF2 = biological target: T1, IKZF2 (Homo sapiens, UniProt Q96SW2+Q9UKS7); assay: Western blot degradation of IKZF2 in hPBMC
T1 construct: endogenous in cells; host or cells: hPBMC
Procedure, shortened: (§1)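 hPBMC, compound-treated; SDS-PAGE Western, NC membrane, 1 h RT block. DC50 = conc. at 50% of DMSO band grayscale (curve fit). % remaining = target/internal control band ratio, normalized.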

WEE1 = biological target: T2, WEE1 (Homo sapiens, UniProt P30291+Q96SW2); assay: Western blot degradation of WEE1 in hPBMC
T2 construct: endogenous in cells; host or cells: hPBMC
Procedure, shortened: as §1

CK1a = biological target: T3, CK1a (Homo sapiens, UniProt P48729+Q96SW2); assay: Western blot degradation of CK1a in hPBMC
T3 construct: endogenous in cells; host or cells: hPBMC
Procedure, shortened: as §1

IKZF3 = biological target: T4, IKZF3 (Homo sapiens, UniProt Q96SW2+Q9UKT9); assay: Western blot degradation of IKZF3 in hPBMC
T4 construct: endogenous in cells; host or cells: hPBMC
Procedure, shortened: as §1

IKZF1 = biological target: T5, IKZF1 (Homo sapiens, UniProt Q13422+Q96SW2); assay: Western blot degradation of IKZF1 in hPBMC
T5 construct: endogenous in cells; host or cells: hPBMC
Procedure, shortened: as §1

GSPT1 = biological target: T6, GSPT1 (Homo sapiens, UniProt P15170+Q96SW2); assay: Western blot degradation of GSPT1 in hPBMC
T6 construct: endogenous in cells; host or cells: hPBMC
Procedure, shortened: as §1

T1 sequence (Q9UKS7 whole entry): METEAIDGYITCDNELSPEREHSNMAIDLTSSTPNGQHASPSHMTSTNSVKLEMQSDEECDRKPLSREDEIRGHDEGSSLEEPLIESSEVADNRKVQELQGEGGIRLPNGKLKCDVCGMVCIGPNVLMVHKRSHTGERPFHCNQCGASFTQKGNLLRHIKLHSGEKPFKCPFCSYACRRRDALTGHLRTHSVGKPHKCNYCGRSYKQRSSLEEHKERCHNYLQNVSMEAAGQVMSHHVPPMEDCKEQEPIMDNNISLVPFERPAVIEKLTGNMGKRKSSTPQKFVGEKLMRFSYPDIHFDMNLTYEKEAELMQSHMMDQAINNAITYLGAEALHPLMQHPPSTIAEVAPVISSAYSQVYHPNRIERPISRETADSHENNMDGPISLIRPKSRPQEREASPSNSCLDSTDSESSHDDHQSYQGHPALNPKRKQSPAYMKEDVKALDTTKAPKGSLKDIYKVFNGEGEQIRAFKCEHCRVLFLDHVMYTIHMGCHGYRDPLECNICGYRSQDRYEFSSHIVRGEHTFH
T1 sequence (Q96SW2 whole entry): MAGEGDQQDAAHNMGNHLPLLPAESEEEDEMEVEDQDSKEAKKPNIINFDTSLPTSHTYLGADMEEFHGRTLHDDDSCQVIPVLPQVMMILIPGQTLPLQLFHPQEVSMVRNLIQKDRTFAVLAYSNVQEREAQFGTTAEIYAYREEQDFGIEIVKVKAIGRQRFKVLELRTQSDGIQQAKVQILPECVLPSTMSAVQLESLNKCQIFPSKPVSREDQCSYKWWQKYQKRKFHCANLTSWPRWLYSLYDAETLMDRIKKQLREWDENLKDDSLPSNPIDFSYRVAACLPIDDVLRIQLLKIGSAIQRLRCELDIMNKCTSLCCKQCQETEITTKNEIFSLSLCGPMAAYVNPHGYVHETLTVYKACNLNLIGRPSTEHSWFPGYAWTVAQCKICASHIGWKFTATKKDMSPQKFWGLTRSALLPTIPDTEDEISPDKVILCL
T1 sequence (Q16531 whole entry partner): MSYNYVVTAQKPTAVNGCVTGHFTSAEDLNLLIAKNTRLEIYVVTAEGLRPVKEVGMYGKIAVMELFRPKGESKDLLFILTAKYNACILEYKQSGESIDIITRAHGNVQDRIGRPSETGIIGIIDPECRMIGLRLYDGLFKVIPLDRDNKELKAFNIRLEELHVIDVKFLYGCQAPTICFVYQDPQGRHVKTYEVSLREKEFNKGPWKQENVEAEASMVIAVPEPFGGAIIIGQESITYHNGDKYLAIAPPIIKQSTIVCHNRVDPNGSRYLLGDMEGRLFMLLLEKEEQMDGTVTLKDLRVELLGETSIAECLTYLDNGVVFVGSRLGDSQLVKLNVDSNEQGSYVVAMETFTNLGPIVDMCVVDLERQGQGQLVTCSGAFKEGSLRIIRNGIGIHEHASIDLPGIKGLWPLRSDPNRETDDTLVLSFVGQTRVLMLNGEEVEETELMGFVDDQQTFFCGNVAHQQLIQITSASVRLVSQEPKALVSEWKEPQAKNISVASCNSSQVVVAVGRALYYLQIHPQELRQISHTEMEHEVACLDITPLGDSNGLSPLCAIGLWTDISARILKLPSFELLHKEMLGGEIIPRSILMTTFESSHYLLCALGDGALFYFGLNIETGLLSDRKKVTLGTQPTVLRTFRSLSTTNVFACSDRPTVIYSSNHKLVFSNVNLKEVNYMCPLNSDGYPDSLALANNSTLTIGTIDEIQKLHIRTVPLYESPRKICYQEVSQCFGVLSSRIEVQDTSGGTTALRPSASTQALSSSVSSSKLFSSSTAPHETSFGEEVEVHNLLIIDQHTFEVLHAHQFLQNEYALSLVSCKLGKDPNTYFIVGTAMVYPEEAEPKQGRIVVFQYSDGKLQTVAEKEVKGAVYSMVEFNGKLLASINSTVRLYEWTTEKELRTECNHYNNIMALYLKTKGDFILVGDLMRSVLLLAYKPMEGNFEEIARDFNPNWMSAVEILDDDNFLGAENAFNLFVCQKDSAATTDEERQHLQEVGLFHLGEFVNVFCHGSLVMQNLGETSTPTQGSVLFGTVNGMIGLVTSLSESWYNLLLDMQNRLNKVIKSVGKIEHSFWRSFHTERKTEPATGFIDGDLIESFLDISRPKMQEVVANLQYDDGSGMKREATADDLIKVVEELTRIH
T5 sequence (Q13422 whole entry): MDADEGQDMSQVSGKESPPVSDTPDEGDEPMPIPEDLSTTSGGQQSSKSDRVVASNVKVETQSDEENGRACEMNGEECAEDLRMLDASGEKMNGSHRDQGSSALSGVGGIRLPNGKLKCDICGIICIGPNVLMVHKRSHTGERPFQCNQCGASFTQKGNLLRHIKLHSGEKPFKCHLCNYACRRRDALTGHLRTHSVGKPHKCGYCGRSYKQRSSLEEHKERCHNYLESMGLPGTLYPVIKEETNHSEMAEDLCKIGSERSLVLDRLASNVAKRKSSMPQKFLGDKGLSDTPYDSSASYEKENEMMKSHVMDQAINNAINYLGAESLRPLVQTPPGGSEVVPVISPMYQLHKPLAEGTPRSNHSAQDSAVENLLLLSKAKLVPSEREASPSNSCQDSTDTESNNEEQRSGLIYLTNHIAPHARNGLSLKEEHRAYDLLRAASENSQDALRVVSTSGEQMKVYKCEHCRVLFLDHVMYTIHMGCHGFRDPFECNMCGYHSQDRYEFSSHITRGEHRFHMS
T5 sequence (Q96SW2 whole entry): as the sequence (Q96SW2 whole entry) above
T5 sequence (Q16531 whole entry partner): as the sequence (Q16531 whole entry partner) above
T2 sequence (P30291 whole entry): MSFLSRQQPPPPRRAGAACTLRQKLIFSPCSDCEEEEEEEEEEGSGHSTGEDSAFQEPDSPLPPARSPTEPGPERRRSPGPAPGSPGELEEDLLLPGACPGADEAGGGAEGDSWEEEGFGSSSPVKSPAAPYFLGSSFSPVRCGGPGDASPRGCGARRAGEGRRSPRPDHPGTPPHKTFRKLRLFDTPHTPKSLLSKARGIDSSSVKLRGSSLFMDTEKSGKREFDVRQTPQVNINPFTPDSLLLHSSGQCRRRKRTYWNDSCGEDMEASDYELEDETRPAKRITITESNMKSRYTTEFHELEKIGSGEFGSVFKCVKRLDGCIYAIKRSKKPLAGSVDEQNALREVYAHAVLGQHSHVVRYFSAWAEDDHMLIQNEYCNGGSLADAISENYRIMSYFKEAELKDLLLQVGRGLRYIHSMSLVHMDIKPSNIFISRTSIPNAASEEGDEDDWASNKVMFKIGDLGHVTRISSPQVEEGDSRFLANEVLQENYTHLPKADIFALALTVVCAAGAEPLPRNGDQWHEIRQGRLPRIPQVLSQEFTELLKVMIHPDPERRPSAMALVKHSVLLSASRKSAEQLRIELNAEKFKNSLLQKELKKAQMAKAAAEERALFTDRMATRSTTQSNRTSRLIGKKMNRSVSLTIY
T2 sequence (Q96SW2 whole entry): as the sequence (Q96SW2 whole entry) above
T2 sequence (Q16531 whole entry partner): as the sequence (Q16531 whole entry partner) above
T4 sequence (Q9UKT9 whole entry): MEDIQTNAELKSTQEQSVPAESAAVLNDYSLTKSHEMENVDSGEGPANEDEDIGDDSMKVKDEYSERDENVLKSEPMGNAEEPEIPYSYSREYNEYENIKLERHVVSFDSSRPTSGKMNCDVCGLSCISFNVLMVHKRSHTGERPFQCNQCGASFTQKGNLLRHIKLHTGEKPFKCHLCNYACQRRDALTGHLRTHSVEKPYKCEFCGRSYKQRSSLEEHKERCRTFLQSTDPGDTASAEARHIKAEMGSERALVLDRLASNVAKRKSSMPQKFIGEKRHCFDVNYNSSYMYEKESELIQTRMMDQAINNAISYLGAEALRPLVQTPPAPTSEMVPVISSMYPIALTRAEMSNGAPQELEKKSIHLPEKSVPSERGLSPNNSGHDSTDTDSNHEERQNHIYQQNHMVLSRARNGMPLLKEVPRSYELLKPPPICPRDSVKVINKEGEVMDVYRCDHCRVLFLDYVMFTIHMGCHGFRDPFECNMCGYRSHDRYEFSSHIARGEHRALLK
T4 sequence (Q96SW2 whole entry): as the sequence (Q96SW2 whole entry) above
T4 sequence (Q16531 whole entry partner): as the sequence (Q16531 whole entry partner) above
T3 sequence (P48729 whole entry): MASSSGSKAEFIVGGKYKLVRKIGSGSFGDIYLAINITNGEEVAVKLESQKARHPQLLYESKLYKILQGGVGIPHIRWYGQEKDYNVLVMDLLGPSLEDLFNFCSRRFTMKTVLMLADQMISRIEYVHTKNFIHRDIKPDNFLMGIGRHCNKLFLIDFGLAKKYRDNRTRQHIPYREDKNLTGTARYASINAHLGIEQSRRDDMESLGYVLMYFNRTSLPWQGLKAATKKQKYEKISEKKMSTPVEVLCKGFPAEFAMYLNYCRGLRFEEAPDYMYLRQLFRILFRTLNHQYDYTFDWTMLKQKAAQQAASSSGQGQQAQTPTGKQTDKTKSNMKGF
T3 sequence (Q96SW2 whole entry): as the sequence (Q96SW2 whole entry) above
T3 sequence (Q16531 whole entry partner): as the sequence (Q16531 whole entry partner) above

| SMILES | Degradation of substrate protein IKZF2 (substrate protein remaining %) (IKZF2) | Degradation of substrate protein WEE1 (substrate protein remaining %) (WEE1) | Degradation of substrate protein CK1a (substrate protein remaining %) (CK1a) | Degradation of substrate protein IKZF3 (substrate protein remaining %) (IKZF3) | Degradation of substrate protein IKZF1 (substrate protein remaining %) (IKZF1) | Degradation of substrate protein GSPT1 (substrate protein remaining %) (GSPT1) |
| --- | --- | --- | --- | --- | --- | --- |
| O=C1CCC(Nc2cnccc2CO)C(=O)N1 (stereo not drawn) [GT-07559, 3-((4-(hydroxymethyl)pyridin-3-yl)amino)piperidine-2,6-dione] | A (A is defined as 0% ≤ substrate protein remaining % ≤ 80%) | A (A is defined as 0% ≤ substrate protein remaining % ≤ 80%) | A (A is defined as 0% ≤ substrate protein remaining % ≤ 80%) | A (A is defined as 0% ≤ substrate protein remaining % ≤ 80%) | A (A is defined as 0% ≤ substrate protein remaining % ≤ 80%) | A (A is defined as 0% ≤ substrate protein remaining % ≤ 80%) |
| O=C1CCN(c2cncc(CO)n2)C(=O)N1 [GT-07632, 1-(6-(hydroxymethyl)pyrazin-2-yl)dihydropyrimidine-2,4(1H,3H)-dione] | A (A is defined as 0% ≤ substrate protein remaining % ≤ 80%) | A (A is defined as 0% ≤ substrate protein remaining % ≤ 80%) | A (A is defined as 0% ≤ substrate protein remaining % ≤ 80%) | A (A is defined as 0% ≤ substrate protein remaining % ≤ 80%) | A (A is defined as 0% ≤ substrate protein remaining % ≤ 80%) | B (B is defined as substrate protein remaining % > 80%) |
| O=C1CCN(c2cnc(F)c(CCl)c2)C(=O)N1 [GT-07633, 1-(5-(chloromethyl)-6-fluoropyridin-3-yl)dihydropyrimidine-2,4(1H,3H)-dione] | A (A is defined as 0% ≤ substrate protein remaining % ≤ 80%) | A (A is defined as 0% ≤ substrate protein remaining % ≤ 80%) | A (A is defined as 0% ≤ substrate protein remaining % ≤ 80%) | B (B is defined as substrate protein remaining % > 80%) | B (B is defined as substrate protein remaining % > 80%) | B (B is defined as substrate protein remaining % > 80%) |
| O=C1CCN(c2cnc(CO)cn2)C(=O)N1 [GT-07634, 1-(5-(hydroxymethyl)pyrazin-2-yl)dihydropyrimidine-2,4(1H,3H)-dione] | A (A is defined as 0% ≤ substrate protein remaining % ≤ 80%) | A (A is defined as 0% ≤ substrate protein remaining % ≤ 80%) | A (A is defined as 0% ≤ substrate protein remaining % ≤ 80%) | A (A is defined as 0% ≤ substrate protein remaining % ≤ 80%) | A (A is defined as 0% ≤ substrate protein remaining % ≤ 80%) | B (B is defined as substrate protein remaining % > 80%) |
